Assay results reported in article PMC7413254 (Nature Communications, 2020).
Like-named read-outs stand apart in the source and are kept apart here.

Tests used:
non-expressing oocytes [1] = format: cell-based, Xenopus laevis; settings: non-expressing oocytes, total [3H]CQ transport, normalised to the oocyte type control
Summary of the method: (§1)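 Oocytes (ten per treatment, ≥4 independent frogs/days) were preloaded by injecting VF-6 in 25 nL ND96 at pH 5.0, 5.5, 6.0 or 7.0, or Na^+-free choline buffer, then uptake run 1.5 h, 27.5 °C, ND96 pH 5.5 by default. Internal concentrations assumed ~400 nL oocyte volume.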

PfCRT^Ecu1110 [2] = target: T1, PfCRT^Ecu1110 (Plasmodium falciparum, UniProt Q9N623, A220S/I356L/K76T/N326D); experiment: cell-based; format: cell-based; settings: for Uptake of [3H]CQ (% PfCRTEcu1110 control), trans-stimulation / PfCRT-mediated [3H]CQ transport, trans-stimulation (% PfCRTEcu1110 control): PfCRTEcu1110 oocytes; for Uptake of [3H]CQ (% PfCRTEcu1110 control), trans-stimulation: total [3H]CQ transport, normalised to the oocyte type control; for PfCRT-mediated [3H]CQ transport, trans-stimulation (% PfCRTEcu1110 control): normalised to oocyte type control; for [3H]CQ transport (% PfCRTDd2 control), trans-stimulation, PfCRTEcu1110: PfCRT-mediated component (background subtracted), sheet title says normalised to PfCRTDd2 control, mean ± SEM, SEM
T1 sequence (Q9N623 whole entry A220S/I356L/K76T/N326D): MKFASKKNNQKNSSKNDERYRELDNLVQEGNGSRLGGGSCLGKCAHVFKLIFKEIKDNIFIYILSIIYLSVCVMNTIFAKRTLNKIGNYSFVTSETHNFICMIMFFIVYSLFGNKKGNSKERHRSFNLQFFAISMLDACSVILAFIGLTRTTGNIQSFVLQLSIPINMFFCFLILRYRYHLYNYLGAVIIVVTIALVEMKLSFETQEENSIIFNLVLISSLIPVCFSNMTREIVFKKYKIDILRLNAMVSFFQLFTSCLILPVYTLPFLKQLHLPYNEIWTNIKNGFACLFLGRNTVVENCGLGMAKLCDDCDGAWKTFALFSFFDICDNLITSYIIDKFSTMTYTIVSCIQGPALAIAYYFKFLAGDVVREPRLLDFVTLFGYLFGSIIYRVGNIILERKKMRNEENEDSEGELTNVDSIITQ
Summary of the method: as §1

PfCRT^3D7 [3] = target: T2, PfCRT^3D7 (Plasmodium falciparum, UniProt Q8IBZ9); experiment: cell-based; format: cell-based; settings: PfCRT3D7 oocytes; for Uptake of [3H]CQ (% PfCRT3D7 control), trans-stimulation: total [3H]CQ transport, normalised to the oocyte type control; for PfCRT-mediated [3H]CQ transport, trans-stimulation (% PfCRT3D7 control): normalised to oocyte type control
T2 sequence (Q8IBZ9 59-398): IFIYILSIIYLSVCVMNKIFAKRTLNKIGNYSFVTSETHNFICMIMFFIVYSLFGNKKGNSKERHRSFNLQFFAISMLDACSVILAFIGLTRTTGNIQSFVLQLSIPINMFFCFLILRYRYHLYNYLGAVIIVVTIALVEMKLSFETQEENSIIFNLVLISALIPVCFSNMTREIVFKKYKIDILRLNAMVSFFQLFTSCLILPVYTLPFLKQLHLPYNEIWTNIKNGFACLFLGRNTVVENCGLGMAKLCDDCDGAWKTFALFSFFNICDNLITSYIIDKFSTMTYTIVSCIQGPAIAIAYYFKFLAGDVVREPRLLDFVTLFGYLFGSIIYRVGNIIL
Summary of the method: as §1

PfCRT^Dd2 [4] = target: T3, PfCRT^Dd2 (Plasmodium falciparum, UniProt Q9N623, A220S/I356T/K76T/M74I/N326S/N75E/Q271E/R371I); experiment: cell-based; format: cell-based; settings: for Uptake of [3H]CQ (% PfCRTDd2 control), trans-stimulation / PfCRT-mediated [3H]CQ transport, trans-stimulation (% PfCRTDd2 control): PfCRTDd2 oocytes; for Uptake of [3H]CQ (% PfCRTDd2 control), trans-stimulation: total [3H]CQ transport, normalised to the oocyte type control; for PfCRT-mediated [3H]CQ transport, trans-stimulation (% PfCRTDd2 control): normalised to oocyte type control; for [3H]CQ transport (% PfCRTDd2 control), trans-stimulation, PfCRTDd2: PfCRT-mediated component (background subtracted), mean ± SEM, SEM
T3 sequence (Q9N623 whole entry A220S/I356T/K76T/M74I/N326S/N75E/Q271E/R371I): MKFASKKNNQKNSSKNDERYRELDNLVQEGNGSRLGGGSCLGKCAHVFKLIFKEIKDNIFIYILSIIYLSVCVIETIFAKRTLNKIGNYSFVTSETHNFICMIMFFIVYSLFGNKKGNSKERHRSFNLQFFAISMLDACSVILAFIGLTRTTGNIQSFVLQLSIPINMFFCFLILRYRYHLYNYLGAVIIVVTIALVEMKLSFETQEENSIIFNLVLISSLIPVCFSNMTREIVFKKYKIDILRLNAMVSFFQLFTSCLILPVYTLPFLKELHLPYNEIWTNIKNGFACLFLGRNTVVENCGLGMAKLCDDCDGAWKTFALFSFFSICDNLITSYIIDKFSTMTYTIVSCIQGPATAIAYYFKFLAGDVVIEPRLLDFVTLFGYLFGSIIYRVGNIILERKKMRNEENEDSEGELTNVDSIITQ
Summary of the method: as §1

PfNT1 = target: T4, PfNT1 (Plasmodium falciparum, UniProt Q8IDM6); experiment: cell-based; format: cell-based; settings: PfNT1 oocytes, total [3H]CQ transport, normalised to the oocyte type control
T4 construct: expressed in transfected cells; host or cells: Xenopus laevis oocytes (stage V-VI), cRNA-injected
T4 sequence (Q8IDM6 whole entry): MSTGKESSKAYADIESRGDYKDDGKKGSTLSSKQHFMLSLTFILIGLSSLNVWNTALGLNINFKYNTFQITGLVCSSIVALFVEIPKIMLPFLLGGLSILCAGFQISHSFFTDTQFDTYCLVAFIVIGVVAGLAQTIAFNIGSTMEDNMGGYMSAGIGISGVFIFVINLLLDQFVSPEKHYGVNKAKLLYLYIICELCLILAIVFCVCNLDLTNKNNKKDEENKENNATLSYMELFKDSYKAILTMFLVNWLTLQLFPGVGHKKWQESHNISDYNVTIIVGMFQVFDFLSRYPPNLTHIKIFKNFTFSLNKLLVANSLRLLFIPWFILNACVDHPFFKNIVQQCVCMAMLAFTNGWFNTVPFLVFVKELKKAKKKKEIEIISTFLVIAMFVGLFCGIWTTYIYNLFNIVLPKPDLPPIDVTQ
Summary of the method: as §1

PfCRT^3D7 [5] = target: T2, PfCRT^3D7; experiment: cell-based; format: cell-based; settings: PfCRT3D7 oocytes, total [3H]CQ transport, normalised to the oocyte type control
Summary of the method: (§2)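 Transport runs from the acidic bath into the cytosol, analogous to PfCRT-mediated efflux out of the vacuole. Non-expressing oocytes act as background.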

non-expressing oocytes [6] = experiment: cells; format: cell-based, Xenopus laevis; settings: non-expressing oocytes, total [3H]CQ transport, normalised to the oocyte type control
Summary of the method: as §2

PfCRT^Ecu1110 [7] = target: T1, PfCRT^Ecu1110; experiment: [3H]CQ uptake into Xenopus oocytes, cis-inhibition by unlabelled solute; format: cell-based; settings: for Uptake of [3H]CQ (% PfCRTEcu1110 control), cis-inhibition / PfCRT-mediated [3H]CQ transport, cis-inhibition (% PfCRTEcu1110 control): PfCRTEcu1110 oocytes; for Uptake of [3H]CQ (% PfCRTEcu1110 control), cis-inhibition: total [3H]CQ transport, normalised to the oocyte type control; for PfCRT-mediated [3H]CQ transport, cis-inhibition (% PfCRTEcu1110 control): background [3H]CQ accumulation subtracted, normalised to oocyte type control; for [3H]CQ transport (% PfCRTEcu1110 control), cis-inhibition, PfCRTEcu1110: PfCRT-mediated component (background subtracted), sheet title says normalised to PfCRTDd2 control, mean ± SEM, SEM
Summary of the method: as §2

PfCRT^Dd2 [8] = target: T3, PfCRT^Dd2; experiment: as above; format: cell-based; settings: PfCRTDd2 oocytes, background [3H]CQ accumulation subtracted, normalised to oocyte type control
Summary of the method: as §2

[9] = [test solute]i = 45 mM (30 mM for some solutes due to solubility)
[10] = [test solute]i = 5 mM (intracellular)
[11] = [test solute]i = 45 mM (intracellular; 30 mM for some solutes due to solubility)
[12] = [test solute]i = 5 mM (injected)

PEEK [PK-4]
Uptake of [3H]CQ (% non-expressing oocyte control), trans-stimulation (non-expressing oocytes [1]; [test solute]i = 5 mM): 100 ± 1.8 % non-expressing oocyte control | Uptake of [3H]CQ (% non-expressing oocyte control), trans-stimulation (non-expressing oocytes [1]; [9]): 99 ± 1.5 % non-expressing oocyte control | Uptake of [3H]CQ (% PfCRTEcu1110 control), trans-stimulation (PfCRT^Ecu1110 [2]; [test solute]i = 5 mM): 99 ± 1.4 % PfCRTEcu1110 control | Uptake of [3H]CQ (% PfCRTEcu1110 control), trans-stimulation (PfCRT^Ecu1110 [2]; [9]): 97 ± 2.4 % PfCRTEcu1110 control | PfCRT-mediated [3H]CQ transport, trans-stimulation (% PfCRTEcu1110 control) (PfCRT^Ecu1110 [2]; [10]): 97 ± 2.7 % PfCRTEcu1110 control | PfCRT-mediated [3H]CQ transport, trans-stimulation (% PfCRTEcu1110 control) (PfCRT^Ecu1110 [2]; [11]): 95 ± 3.5 % PfCRTEcu1110 control | [3H]CQ transport (% PfCRTDd2 control), trans-stimulation, PfCRTEcu1110 (PfCRT^Ecu1110 [2]; [12]): 29 ± 1.1 % PfCRTEcu1110 control | [3H]CQ transport (% PfCRTDd2 control), trans-stimulation, PfCRTEcu1110 (PfCRT^Ecu1110 [2]; [9]): 29 ± 1.2 % PfCRTEcu1110 control | Uptake of [3H]CQ (% PfCRT3D7 control), trans-stimulation (PfCRT^3D7 [3]; [test solute]i = 5 mM): 99 ± 2.1 % PfCRT3D7 control | Uptake of [3H]CQ (% PfCRT3D7 control), trans-stimulation (PfCRT^3D7 [3]; [9]): 100 ± 1.7 % PfCRT3D7 control | PfCRT-mediated [3H]CQ transport, trans-stimulation (% PfCRT3D7 control) (PfCRT^3D7 [3]; [10]): 97 ± 3.8 % PfCRT3D7 control | PfCRT-mediated [3H]CQ transport, trans-stimulation (% PfCRT3D7 control) (PfCRT^3D7 [3]; [11]): 98 ± 3.2 % PfCRT3D7 control | Uptake of [3H]CQ (% PfCRTDd2 control), trans-stimulation (PfCRT^Dd2 [4]; [test solute]i = 5 mM): 97 ± 2.1 % PfCRTDd2 control | Uptake of [3H]CQ (% PfCRTDd2 control), trans-stimulation (PfCRT^Dd2 [4]; [9]): 97 ± 3.2 % PfCRTDd2 control | PfCRT-mediated [3H]CQ transport, trans-stimulation (% PfCRTDd2 control) (PfCRT^Dd2 [4]; [10]): 95 ± 4.4 % PfCRTDd2 control | PfCRT-mediated [3H]CQ transport, trans-stimulation (% PfCRTDd2 control) (PfCRT^Dd2 [4]; [11]): 100 ± 4.3 % PfCRTDd2 control | [3H]CQ transport (% PfCRTDd2 control), trans-stimulation, PfCRTDd2 (PfCRT^Dd2 [4]; [12]): 95 ± 4.4 % PfCRTDd2 control | [3H]CQ transport (% PfCRTDd2 control), trans-stimulation, PfCRTDd2 (PfCRT^Dd2 [4]; [9]): 100 ± 4.3 % PfCRTDd2 control | Uptake of [3H]CQ (% PfNT1 control), trans-stimulation (PfNT1; [test solute]i = 5 mM): 99 ± 2.1 % PfNT1 control | Uptake of [3H]CQ (% PfNT1 control), trans-stimulation (PfNT1; [9]): 100 ± 2.7 % PfNT1 control | Uptake of [3H]CQ (% PfCRT3D7 control), cis-inhibition (PfCRT^3D7 [5]; [test solute] = 0.5 mM): 102 ± 4.4 % PfCRT3D7 control | Uptake of [3H]CQ (% PfCRT3D7 control), cis-inhibition (PfCRT^3D7 [5]; [test solute] = 1 mM): 99 ± 4.7 % PfCRT3D7 control | Uptake of [3H]CQ (% PfCRT3D7 control), cis-inhibition (PfCRT^3D7 [5]; [test solute] = 2 mM): 98 ± 3.7 % PfCRT3D7 control | Uptake of [3H]CQ (% non-expressing oocyte control), cis-inhibition (non-expressing oocytes [6]; [test solute] = 0.5 mM): 100 ± 5.8 % non-expressing oocyte control | Uptake of [3H]CQ (% non-expressing oocyte control), cis-inhibition (non-expressing oocytes [6]; [test solute] = 1 mM): 99 ± 5.3 % non-expressing oocyte control | Uptake of [3H]CQ (% PfCRTEcu1110 control), cis-inhibition (PfCRT^Ecu1110 [7]; [test solute] = 0.5 mM): 51 ± 3.2 % PfCRTEcu1110 control | Uptake of [3H]CQ (% PfCRTEcu1110 control), cis-inhibition (PfCRT^Ecu1110 [7]; [test solute] = 1 mM): 47 ± 3.2 % PfCRTEcu1110 control | Uptake of [3H]CQ (% PfCRTEcu1110 control), cis-inhibition (PfCRT^Ecu1110 [7]; [test solute] = 2 mM): 33 ± 2.6 % PfCRTEcu1110 control | PfCRT-mediated [3H]CQ transport, cis-inhibition (% PfCRTEcu1110 control) (PfCRT^Ecu1110 [7]; [test solute] = 0.5 mM): 46 ± 1.6 % PfCRTEcu1110 control | PfCRT-mediated [3H]CQ transport, cis-inhibition (% PfCRTEcu1110 control) (PfCRT^Ecu1110 [7]; [test solute] = 1 mM): 42 ± 4.2 % PfCRTEcu1110 control | PfCRT-mediated [3H]CQ transport, cis-inhibition (% PfCRTEcu1110 control) (PfCRT^Ecu1110 [7]; [test solute] = 2 mM): 27 ± 1.9 % PfCRTEcu1110 control | [3H]CQ transport (% PfCRTEcu1110 control), cis-inhibition, PfCRTEcu1110 (PfCRT^Ecu1110 [7]; [test solute] = 0.5 mM): 14 ± 0.2 % PfCRTEcu1110 control | [3H]CQ transport (% PfCRTEcu1110 control), cis-inhibition, PfCRTEcu1110 (PfCRT^Ecu1110 [7]; [test solute] = 1 mM): 13 ± 0.4 % PfCRTEcu1110 control | [3H]CQ transport (% PfCRTEcu1110 control), cis-inhibition, PfCRTEcu1110 (PfCRT^Ecu1110 [7]; [test solute] = 2 mM): 9.0 ± 0.04 % PfCRTEcu1110 control | PfCRT-mediated [3H]CQ transport, cis-inhibition (% PfCRTDd2 control) (PfCRT^Dd2 [8]; [test solute] = 0.5 mM): 57 ± 2.0 % PfCRTDd2 control | PfCRT-mediated [3H]CQ transport, cis-inhibition (% PfCRTDd2 control) (PfCRT^Dd2 [8]; [test solute] = 1 mM): 44 ± 2.1 % PfCRTDd2 control | PfCRT-mediated [3H]CQ transport, cis-inhibition (% PfCRTDd2 control) (PfCRT^Dd2 [8]; [test solute] = 2 mM): 37 ± 2.2 % PfCRTDd2 control
